Assay [1] concerns the target T1, human factor XIa (Homo sapiens, UniProt P03951).
T1 construct: purchased Kordia
In words: Measurement of FXIa inhibition (fluorogenic peptide substrate Boc-Glu(OBzl)-Ala-Arg-AMC). The note with it: factor XIa from Kordia, 15 min preincubation, 30 min at 22° C., fluorescence; read-out: IC50. Format: biochemical. The method, then:
a.1) Measurement of FXIa Inhibition
The factor XIa inhibition of the substances according to the invention is determined using a biochemical test system which utilizes the reaction of a peptidic factor XIa substrate to determine the enzymatic activity of human factor XIa. Here, factor XIa cleaves from the peptic factor XIa substrate the C-terminal aminomethylcoumarin (AMC), the fluorescence of which is measured. The determinations are carried out in microtitre plates.
In each case 1 μl of the diluted substance solutions is placed into the wells of white microtitre plates from Greiner (384 wells). […] After 15 min of incubation, the enzyme reaction is started by addition of 20 μl of the factor XIa substrate Boc-Glu(OBzl)-Ala-Arg-AMC dissolved in assay buffer (10 μM in assay buffer) from Bachem, the mixture is incubated at room temperature (22° C.) for 30 min and fluorescence is then measured (excitation: 360 nm, emission: 460 nm). The measured emissions of the test batches with test substance are compared to those of control batches without test substance (only dimethyl sulphoxide instead of test substance in dimethyl sulphoxide), and IC50 values are calculated from the concentration/activity relationships.

For assay [2], the system named is plasma. In words: Determination of anticoagulatory activity: activated partial thromboplastin time (aPTT) in plasma. It counts as biochemical, human. The note with it: concentration of test substance which brings about a 1.5-fold extension of the aPTT, C.K. Prest kit, 37° C. On the procedure: a.4) Determination of Anticoagulatory Activity
The anticoagulatory activity of the test substances is determined in vitro in human and animal plasma (for example mouse, rat, rabbit, pig and dog plasma). To this end, blood is drawn off in a mixing ratio of sodium citrate/blood of 1:9 using a 0.11 molar sodium citrate solution as receiver. Immediately after the blood has been drawn off, it is mixed thoroughly and centrifuged at about 4000 g for 15 minutes. The supernatant is pipetted off.
The activated partial thromboplastin time (aPTT) is determined in the presence of varying concentrations of test substance or the corresponding solvent using a commercial test kit (C.K. Prest from Diagnostica Stago). The test compounds are incubated with the plasma and the PTT reagent (cephalin, kaolin) at 37° C. for 3 minutes. Coagulation is then started by addition of a 25 mM aqueous calcium chloride solution, and the time when coagulation occurs is determined. The concentration of test substance which brings about a 1.5-fold extension of the aPTT is determined.

Where a name gives a salt, the structure may show the parent alone.

T1 sequence (P03951 388-625 limits assumed): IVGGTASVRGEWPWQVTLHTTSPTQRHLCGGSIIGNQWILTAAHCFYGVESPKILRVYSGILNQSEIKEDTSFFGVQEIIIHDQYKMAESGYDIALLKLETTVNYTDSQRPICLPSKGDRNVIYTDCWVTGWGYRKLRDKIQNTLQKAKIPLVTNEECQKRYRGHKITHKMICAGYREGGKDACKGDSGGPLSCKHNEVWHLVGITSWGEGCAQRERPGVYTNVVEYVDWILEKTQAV
T1 sequence (P03951 19-387 partner limits assumed): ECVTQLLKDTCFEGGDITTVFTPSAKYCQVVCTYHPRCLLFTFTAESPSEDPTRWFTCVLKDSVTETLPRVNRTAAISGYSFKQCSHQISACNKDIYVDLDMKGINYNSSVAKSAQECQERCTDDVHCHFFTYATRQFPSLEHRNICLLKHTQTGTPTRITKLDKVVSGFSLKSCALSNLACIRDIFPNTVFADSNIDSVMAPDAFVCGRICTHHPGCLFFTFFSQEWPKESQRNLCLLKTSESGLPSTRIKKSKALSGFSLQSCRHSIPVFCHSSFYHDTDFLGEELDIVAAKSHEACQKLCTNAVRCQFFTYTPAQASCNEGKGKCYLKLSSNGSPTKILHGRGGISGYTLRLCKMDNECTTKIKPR

In general, IC50 refers to the midpoint of a concentration-inhibition curve. Turning to `Cc1cc(S(N)(=O)=O)ccc1-c1ccc(C[C@H](NC(=O)[C@H]2CC[C@H](CN)CC2)C(=O)Nc2ccc(-c3nnc(Cl)[nH]3)cc2)cc1` [Example 20, trans-4-(Aminomethyl)-N-[(2S)-1-{[4-(3-chloro-4H-1,2,4-triazol-5-yl)phenyl]amino}-3-(2′-methyl-4′-sulphamoylbiphenyl-4-yl)-1-oxopropan-2-yl]cyclohexanecarboxamide hydrochloride], in assay [1], the IC50 turned out to be 1.8 nM. For the same molecule, the “Concentration for 1.5-fold aPTT extension” value in assay [2] is 0.18 µmol/L.
On to `CS(=O)(=O)c1ccc(-c2ccc(C[C@H](NC(=O)[C@H]3CC[C@H](CN)CC3)C(=O)Nc3ccc(-c4nn[nH]n4)cc3)cc2)c(C(F)(F)F)c1` [Example 21, trans-4-(Aminomethyl)-N-[(2S)-3-[4′-(methylsulphonyl)-2′-(trifluoromethyl)biphenyl-4-yl]-1-oxo-1-{[4-(2H-tetrazol-5-yl)phenyl]amino}propan-2-yl]cyclohexanecarboxamide hydrochloride], for which, in assay [1], the half-maximal inhibitory concentration (IC50) is 0.9 nM. The “Concentration for 1.5-fold aPTT extension” value in assay [2] stood at 0.23 µmol/L.
For `NC[C@H]1CC[C@H](C(=O)N[C@@H](Cc2ccc(-c3ccc(S(N)(=O)=O)cc3)cc2)C(=O)Nc2ccc(-c3nnc(Cl)[nH]3)cc2)CC1` [Example 22, trans-4-(Aminomethyl)-N-[(2S)-1-{[4-(3-chloro-4H-1,2,4-triazol-5-yl)phenyl]amino}-1-oxo-3-(4′-sulphamoylbiphenyl-4-yl)propan-2-yl]cyclohexanecarboxamide hydrochloride], the IC50 in assay [1] was 1.5 nM. The “Concentration for 1.5-fold aPTT extension” value in assay [2] was determined as 0.25 µmol/L.
Turning to `Cc1cc(C#N)ccc1-c1ccc(C[C@H](NC(=O)[C@H]2CC[C@H](CN)CC2)C(=O)Nc2ccc(-c3nn[nH]n3)cc2)cc1` [Example 23, trans-4-(Aminomethyl)-N-[(2S)-3-(4′-cyano-2′-methylbiphenyl-4-yl)-1-oxo-1-{[4-(2H-tetrazol-5-yl)phenyl]amino}propan-2-yl]cyclohexanecarboxamide hydrochloride], the IC50 in assay [1] turned out to be 1.1 nM. The “Concentration for 1.5-fold aPTT extension” value in assay [2] came to 0.27 µmol/L.
With `Cc1cc(S(=O)(=O)N(C)C)ccc1-c1ccc(C[C@H](NC(=O)[C@H]2CC[C@H](CN)CC2)C(=O)Nc2ccc(-c3nn[nH]n3)c(F)c2)cc1` [Example 24, trans-4-(Aminomethyl)-N-[(2S)-3-[4′-(dimethylsulphamoyl)-2′-methylbiphenyl-4-yl]-1-{[3-fluoro-4-(2H-tetrazol-5-yl)phenyl]amino}-1-oxopropan-2-yl]cyclohexanecarboxamide hydrochloride], in assay [1], the IC50 is 0.4 nM. In assay [2], the “Concentration for 1.5-fold aPTT extension” value came out at 0.27 µmol/L.
On to `NC[C@H]1CC[C@H](C(=O)N[C@@H](Cc2ccc(-c3ccc(N4CCOCC4=O)cc3)cc2)C(=O)Nc2ccc(-c3nn[nH]n3)cc2)CC1` [Example 25, trans-4-(Aminomethyl)-N-[(2S)-1-oxo-3-[4′-(3-oxomorpholin-4-yl)biphenyl-4-yl]-1-{[4-(2H-tetrazol-5-yl)phenyl]amino}propan-2-yl]cyclohexanecarboxamide hydrochloride], for which the half-maximal inhibitory concentration (IC50) in assay [1] worked out at 2.5 nM. The “Concentration for 1.5-fold aPTT extension” value in assay [2] came to 0.36 µmol/L.
As to `CC(=O)Nc1ccc(-c2ccc(C[C@H](NC(=O)[C@H]3CC[C@H](CN)CC3)C(=O)Nc3ccc(-c4nn[nH]n4)cc3)cc2)cc1F` [Example 26, trans-N-[(2S)-3-(4′-Acetamido-3′-fluorobiphenyl-4-yl)-1-oxo-1-{[4-(2H-tetrazol-5-yl)phenyl]-amino}propan-2-yl]-4-(aminomethyl)cyclohexanecarboxamide hydrochloride], the IC50 in assay [1] is 4.7 nM. The “Concentration for 1.5-fold aPTT extension” value in assay [2] was 0.4 µmol/L.

The values are drawn from patent US20160237044A1, “SUBSTITUTED PHENYLALANINE DERIVATIVES” (BAYER PHARMA AKTIENGESELLSCHAFT, priority 2013, published 2016).
